Data set [1] deals with Tyrosine-protein kinase JAK2 (Homo sapiens, UniProt O60674). As to the kind of experiment: Inhibition of recombinant JAK2 (unknown origin) using 5-FAM-KKKKEEIYFFFG-OH substrate and ATP incubated for 180 mins by […] method.
Data set [2] concerns the target Tyrosine-protein kinase JAK1 (Homo sapiens, UniProt P23458). Nature of the data set: Inhibition of recombinant JAK1 (unknown origin) using 5-FAM-KKKKEEIYFFFG-OH substrate and ATP incubated for 180 mins by […] method.
Data set [3] has as its target T1, Tyrosine-protein kinase JAK3 (Homo sapiens, UniProt P52333).
T1 sequence (P52333 whole entry): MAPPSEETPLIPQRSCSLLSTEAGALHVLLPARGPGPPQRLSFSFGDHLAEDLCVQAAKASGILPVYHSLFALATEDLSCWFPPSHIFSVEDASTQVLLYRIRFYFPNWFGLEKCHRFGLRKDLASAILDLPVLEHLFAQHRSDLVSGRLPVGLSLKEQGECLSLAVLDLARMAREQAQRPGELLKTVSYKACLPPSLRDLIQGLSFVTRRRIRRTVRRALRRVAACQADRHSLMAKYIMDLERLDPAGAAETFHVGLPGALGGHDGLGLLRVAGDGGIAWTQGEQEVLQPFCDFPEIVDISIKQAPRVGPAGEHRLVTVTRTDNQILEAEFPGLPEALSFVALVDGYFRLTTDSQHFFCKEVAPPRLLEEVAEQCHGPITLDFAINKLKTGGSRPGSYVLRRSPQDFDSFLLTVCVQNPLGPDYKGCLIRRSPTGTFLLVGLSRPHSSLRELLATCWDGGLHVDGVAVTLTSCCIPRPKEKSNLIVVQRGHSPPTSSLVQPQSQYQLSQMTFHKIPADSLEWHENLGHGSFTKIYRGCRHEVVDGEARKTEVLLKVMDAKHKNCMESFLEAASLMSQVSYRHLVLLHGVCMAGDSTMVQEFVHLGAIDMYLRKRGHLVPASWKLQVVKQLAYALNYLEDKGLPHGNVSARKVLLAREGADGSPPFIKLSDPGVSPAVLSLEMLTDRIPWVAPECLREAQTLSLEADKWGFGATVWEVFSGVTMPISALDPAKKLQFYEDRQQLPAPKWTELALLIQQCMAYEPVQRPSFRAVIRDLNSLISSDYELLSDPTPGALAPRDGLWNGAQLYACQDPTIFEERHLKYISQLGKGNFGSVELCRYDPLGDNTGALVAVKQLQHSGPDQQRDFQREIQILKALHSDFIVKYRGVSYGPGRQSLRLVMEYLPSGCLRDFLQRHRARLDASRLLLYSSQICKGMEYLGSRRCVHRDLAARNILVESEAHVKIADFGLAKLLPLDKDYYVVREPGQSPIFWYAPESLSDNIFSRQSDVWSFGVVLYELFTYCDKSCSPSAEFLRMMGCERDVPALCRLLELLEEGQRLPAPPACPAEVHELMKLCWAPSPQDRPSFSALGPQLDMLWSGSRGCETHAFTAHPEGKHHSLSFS
As to the kind of experiment: Inhibition of recombinant JAK3 (unknown origin) using 5-FAM-KKKKEEIYFFFG-OH substrate and ATP incubated for 180 mins by […] method.

The nature of data set [4]: Antiproliferative activity against human SET2 cells incubated for 72 hrs by [3H] thymidine incorporation assay. Type of data set: functional, cell-based. The note with it: SET-2.
A further data set deals with Liver microsome. Nature of the data set: Drug metabolism in human liver microsomes assessed as thiourea formation at 10 uM in presence of NADPH by HPLC/UV/MS method. The format is ADME.
The target in data set [5] is Non-receptor tyrosine-protein kinase TYK2 (Homo sapiens, UniProt P29597). As to the kind of experiment: Inhibition of recombinant TYK2 (unknown origin) by scintillation counting method.
Chain of Non-receptor tyrosine-protein kinase TYK2 (P29597 whole entry): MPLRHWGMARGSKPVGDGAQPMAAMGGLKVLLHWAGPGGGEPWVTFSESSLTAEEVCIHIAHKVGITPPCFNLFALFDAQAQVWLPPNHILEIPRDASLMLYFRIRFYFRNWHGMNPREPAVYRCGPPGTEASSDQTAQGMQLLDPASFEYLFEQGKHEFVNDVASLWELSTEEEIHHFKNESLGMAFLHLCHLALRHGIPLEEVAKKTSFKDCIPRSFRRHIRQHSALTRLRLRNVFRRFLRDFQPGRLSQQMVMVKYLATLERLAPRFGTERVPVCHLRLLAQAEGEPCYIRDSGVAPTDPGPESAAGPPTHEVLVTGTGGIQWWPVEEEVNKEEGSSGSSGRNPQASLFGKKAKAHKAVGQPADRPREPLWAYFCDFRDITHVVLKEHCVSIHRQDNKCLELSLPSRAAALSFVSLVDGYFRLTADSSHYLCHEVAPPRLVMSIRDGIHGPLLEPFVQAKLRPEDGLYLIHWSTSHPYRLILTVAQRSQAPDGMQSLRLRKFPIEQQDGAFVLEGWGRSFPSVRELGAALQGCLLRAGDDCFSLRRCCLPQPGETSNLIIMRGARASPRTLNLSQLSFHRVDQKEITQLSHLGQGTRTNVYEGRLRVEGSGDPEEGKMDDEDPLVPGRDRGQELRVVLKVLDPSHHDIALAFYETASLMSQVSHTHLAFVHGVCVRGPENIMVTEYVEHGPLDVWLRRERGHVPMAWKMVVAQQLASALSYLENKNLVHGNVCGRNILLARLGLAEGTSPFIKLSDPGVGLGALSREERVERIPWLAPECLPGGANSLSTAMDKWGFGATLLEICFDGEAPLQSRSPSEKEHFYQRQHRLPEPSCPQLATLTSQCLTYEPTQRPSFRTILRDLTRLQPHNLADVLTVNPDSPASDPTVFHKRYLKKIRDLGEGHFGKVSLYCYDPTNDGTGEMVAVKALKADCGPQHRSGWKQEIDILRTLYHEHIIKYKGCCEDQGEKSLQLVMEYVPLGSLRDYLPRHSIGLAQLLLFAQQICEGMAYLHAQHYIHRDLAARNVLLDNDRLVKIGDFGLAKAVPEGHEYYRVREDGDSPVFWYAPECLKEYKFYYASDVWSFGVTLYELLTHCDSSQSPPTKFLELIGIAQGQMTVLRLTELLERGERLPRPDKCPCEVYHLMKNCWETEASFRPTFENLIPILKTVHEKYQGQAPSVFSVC
For another data set, the target named is hERG (Homo sapiens, UniProt Q12809). Nature of the data set: Inhibition of human ERG channel at 30 uM.
Chain of hERG (Q12809 whole entry): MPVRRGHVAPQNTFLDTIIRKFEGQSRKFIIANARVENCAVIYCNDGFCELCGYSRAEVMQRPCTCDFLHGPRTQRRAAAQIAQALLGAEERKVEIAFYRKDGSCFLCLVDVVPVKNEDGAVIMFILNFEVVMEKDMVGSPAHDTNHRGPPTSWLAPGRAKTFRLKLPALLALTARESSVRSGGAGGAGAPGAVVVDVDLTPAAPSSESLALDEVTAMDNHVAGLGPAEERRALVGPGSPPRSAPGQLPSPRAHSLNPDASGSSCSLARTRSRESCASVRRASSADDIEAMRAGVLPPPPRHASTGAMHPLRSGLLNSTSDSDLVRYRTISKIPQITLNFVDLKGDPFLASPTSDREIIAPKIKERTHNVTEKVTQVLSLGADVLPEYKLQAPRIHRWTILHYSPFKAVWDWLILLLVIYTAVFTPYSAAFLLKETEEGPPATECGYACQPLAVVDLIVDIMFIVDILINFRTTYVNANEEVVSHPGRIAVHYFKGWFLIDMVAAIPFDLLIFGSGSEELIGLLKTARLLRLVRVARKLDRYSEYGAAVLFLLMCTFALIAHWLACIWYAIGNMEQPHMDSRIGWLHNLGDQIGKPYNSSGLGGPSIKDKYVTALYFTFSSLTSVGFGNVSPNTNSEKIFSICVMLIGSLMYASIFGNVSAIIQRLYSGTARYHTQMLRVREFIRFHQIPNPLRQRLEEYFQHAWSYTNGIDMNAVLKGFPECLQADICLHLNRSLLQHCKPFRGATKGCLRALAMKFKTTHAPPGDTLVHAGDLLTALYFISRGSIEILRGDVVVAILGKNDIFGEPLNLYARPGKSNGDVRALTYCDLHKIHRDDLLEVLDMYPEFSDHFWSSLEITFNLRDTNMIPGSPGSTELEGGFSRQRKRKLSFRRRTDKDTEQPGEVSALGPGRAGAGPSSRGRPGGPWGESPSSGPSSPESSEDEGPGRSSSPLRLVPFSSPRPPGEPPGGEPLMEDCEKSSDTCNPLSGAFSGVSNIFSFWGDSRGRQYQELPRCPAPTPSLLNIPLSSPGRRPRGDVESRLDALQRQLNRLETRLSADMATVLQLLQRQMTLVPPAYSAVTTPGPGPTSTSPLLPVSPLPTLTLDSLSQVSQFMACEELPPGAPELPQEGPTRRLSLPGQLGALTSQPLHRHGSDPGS

Chain of Tyrosine-protein kinase JAK2 (O60674 whole entry): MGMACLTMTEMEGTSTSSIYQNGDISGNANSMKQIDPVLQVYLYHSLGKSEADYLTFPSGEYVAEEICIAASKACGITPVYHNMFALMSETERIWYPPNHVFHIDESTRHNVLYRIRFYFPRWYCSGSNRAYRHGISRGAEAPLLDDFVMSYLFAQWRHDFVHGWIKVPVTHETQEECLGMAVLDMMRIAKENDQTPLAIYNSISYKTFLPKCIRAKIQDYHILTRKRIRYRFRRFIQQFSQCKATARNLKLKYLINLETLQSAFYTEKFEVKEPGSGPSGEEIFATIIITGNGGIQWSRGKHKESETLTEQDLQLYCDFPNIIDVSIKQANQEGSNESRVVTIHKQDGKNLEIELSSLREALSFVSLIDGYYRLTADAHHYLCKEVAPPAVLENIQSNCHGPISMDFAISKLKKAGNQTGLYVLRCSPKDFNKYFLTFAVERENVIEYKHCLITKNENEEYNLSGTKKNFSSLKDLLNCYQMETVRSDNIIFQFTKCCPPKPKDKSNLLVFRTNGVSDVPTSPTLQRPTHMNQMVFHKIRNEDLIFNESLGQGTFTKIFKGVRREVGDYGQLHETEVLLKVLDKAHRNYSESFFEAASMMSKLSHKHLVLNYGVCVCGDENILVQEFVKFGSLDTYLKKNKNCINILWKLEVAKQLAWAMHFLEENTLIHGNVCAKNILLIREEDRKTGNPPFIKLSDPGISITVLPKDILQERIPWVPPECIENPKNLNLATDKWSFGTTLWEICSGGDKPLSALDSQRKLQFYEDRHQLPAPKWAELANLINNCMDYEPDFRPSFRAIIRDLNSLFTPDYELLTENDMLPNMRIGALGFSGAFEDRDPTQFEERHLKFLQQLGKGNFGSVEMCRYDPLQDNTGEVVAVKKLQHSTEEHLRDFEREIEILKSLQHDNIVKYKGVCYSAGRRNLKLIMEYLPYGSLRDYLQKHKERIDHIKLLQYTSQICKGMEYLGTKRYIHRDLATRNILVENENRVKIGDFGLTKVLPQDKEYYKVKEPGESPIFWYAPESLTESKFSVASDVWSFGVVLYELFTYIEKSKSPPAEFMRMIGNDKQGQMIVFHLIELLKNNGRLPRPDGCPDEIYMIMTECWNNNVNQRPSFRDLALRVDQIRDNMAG
Chain of Tyrosine-protein kinase JAK1 (P23458 whole entry): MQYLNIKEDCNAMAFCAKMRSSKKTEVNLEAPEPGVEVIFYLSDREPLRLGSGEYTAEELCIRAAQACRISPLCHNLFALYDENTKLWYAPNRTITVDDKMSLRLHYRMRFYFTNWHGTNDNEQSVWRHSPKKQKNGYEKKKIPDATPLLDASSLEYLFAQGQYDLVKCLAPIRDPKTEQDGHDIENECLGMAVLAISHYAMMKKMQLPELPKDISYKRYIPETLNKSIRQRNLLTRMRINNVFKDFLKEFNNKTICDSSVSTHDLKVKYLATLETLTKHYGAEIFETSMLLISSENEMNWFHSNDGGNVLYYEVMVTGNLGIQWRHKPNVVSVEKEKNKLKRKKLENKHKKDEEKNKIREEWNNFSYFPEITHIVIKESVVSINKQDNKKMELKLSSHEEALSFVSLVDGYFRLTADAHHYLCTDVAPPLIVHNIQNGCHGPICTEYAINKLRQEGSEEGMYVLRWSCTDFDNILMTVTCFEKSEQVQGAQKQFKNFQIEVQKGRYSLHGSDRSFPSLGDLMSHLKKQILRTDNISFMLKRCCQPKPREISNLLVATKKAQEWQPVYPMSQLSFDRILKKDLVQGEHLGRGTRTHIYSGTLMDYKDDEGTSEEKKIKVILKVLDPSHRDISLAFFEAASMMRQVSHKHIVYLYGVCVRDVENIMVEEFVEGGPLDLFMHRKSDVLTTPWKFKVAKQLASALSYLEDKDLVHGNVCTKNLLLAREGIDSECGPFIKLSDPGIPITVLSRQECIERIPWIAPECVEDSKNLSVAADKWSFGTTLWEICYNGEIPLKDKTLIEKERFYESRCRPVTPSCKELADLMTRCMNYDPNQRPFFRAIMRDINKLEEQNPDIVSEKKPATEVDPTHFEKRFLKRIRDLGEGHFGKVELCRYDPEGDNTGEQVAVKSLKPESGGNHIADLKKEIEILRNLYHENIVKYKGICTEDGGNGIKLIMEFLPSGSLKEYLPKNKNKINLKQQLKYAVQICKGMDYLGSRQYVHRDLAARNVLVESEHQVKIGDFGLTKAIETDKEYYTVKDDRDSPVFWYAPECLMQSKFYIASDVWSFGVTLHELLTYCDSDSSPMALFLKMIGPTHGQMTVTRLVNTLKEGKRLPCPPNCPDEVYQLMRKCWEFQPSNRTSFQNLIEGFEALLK

In general, IC50 refers to the concentration needed to halve the response being measured. As for `CCc1nc(Nc2nc3c(cc(C(=O)N(C4CC4)C4CC4)n3CC)c3c2ncn3C)sc1C`, the half-maximal inhibitory concentration (IC50) was 0.0014 µM in data set [1], 0.25 µM in data set [2], 0.46 µM in data set [3] and 0.092 µM in data set [4].

As to `CCn1c(C(=O)N(C2CC2)C2CC2)cc2c3c(ncn3C)c(Nc3nc(C)c(C(=O)NC)s3)nc21`, the Drug metabolism result in the data set on Liver microsome was “metabolite_detected”. The IC50 in data set [1] stood at 0.0009 µM; in data set [2] it was 0.019 µM; in data set [3], 0.019 µM; in data set [4], 0.12 µM.

Consider `CCn1c(C(=O)N(C2CC2)C2CC2)cc2c3c(ncn3C)c(Nc3nc(C(=O)NC)c(C)s3)nc21`, for which the Drug metabolism result with Liver microsome was “metabolite_detected”. In addition, the IC50 in data set [1] came to 0.0031 µM; in data set [2], 0.022 µM; in data set [3], 0.049 µM; in data set [4], 0.1 µM.

Consider `CCn1c(C(=O)N(C2CC2)C2CC2)cc2c3c(ncn3C)c(Nc3nc(C)c(S(C)(=O)=O)s3)nc21`, for which the Drug metabolism result with Liver microsome is recorded as “metabolite_detected”. Further, the half-maximal inhibitory concentration (IC50) came out at 0.04 µM in data set [2], 0.052 µM in data set [3] and 0.051 µM in data set [4].

With `CCn1c(C(=O)N(C2CC2)C2CC2)cc2c3c(ncn3C)c(Nc3nc(C)c(C(=O)N4CCS(=O)(=O)CC4)s3)nc21`, the IC50 was 0.0007 µM in data set [1], 0.048 µM in data set [2], 0.031 µM in data set [3] and 0.33 µM in data set [4].

As to `CCn1c(C(=O)N(C2CC2)C2CC2)cc2c3c(ncn3C)c(Nc3nc(C)n(C)n3)nc21`, the half-inhibitory concentration (IC50) is 0.033 µM in data set [1], 6 µM in data set [2], 3.8 µM in data set [3] and 1.3 µM in data set [4].

As usually defined, the inhibition is the share of the control response that was lost under treatment. A higher inhibition goes with strong suppression. As for `CCn1nc(Nc2nc3c(cc(C(=O)N(C4CC4)C4CC4)n3CC)c3c2ncn3C)cc1C`, the 50% inhibitory concentration (IC50) in data set [2] was determined as 0.33 µM; in data set [3], 0.21 µM; in data set [4], 0.055 µM; in data set [5], 0.22 µM. For the same compound, the inhibition at 30 µM at hERG is 75%.

Regarding `CCn1c(C(=O)N(C2CC2)C2CC2)cc2c3c(ncn3C)c(Nc3cc(C)nn3C)nc21`, the half-maximal inhibitory concentration (IC50) in data set [1] was 0.23 µM; in data set [2], 0.54 µM; in data set [3], 5 µM; in data set [4], over 2 µM; in data set [5], 2.3 µM.

Regarding `CCn1c(C(=O)N(C2CC2)C2CC2)cc2c3c(ncn3C)c(Nc3cc(C)[nH]n3)nc21`, the IC50 came to 0.0012 µM in data set [1]; 0.016 µM in data set [2]; 0.087 µM in data set [3]; 0.053 µM in data set [4]; 0.0019 µM in data set [5].

The record behind these values is ChEMBL document CHEMBL3621135 (ACS Med Chem Lett, 2015).
